Data published in article PMC10179352, “Clostridia and Enteroviruses as Synergistic Triggers of Type 1 Diabetes Mellitus” (International Journal of Molecular Sciences, 2023).

What was measured:
[1] = target: INS (Homo sapiens, UniProt P01308); conditions: ultraviolet spectrometry; derived from previous study; read-out: Binding Constants, INS; cited from earlier work
Text: (§1) Table 1 Summary of ultraviolet spectrometry experiments concerning binding of T cell receptor sequences expanded in type 1 diabetic patients (TCR DIA) to a COX peptide (Cox Pep) that mimics the INS receptor (Ins Rec), two Clostridium peptides (Clost Pep) that mimic INS, two INS receptor peptides identified by their amino acid sequence numbers, and INS itself. Gluc = glucagon-like sequence; GR = gl | column: INS

[2] = target: Ins Rec 897–915; conditions: ultraviolet spectrometry; derived from previous study; read-out: Binding Constants, Ins Rec 897–915; cited from earlier work
Text: as §1, with “column: Ins Rec 897–915” for “column: INS”

[3] = target: Cox Pep #1 (COX peptide that mimics the INS receptor); test: Ultraviolet spectrometry peptide binding; conditions: estimated from inflection points of the curves, read-out: Binding Constants, Cox Pep #1
Text: (§2) Because some COX antigens mimic INSR sequences and some Clostridia antigens mimic INS, we synthesized several microbial peptide sequences that mimicked these human proteins and used ultraviolet spectroscopy to determine whether they bound to each other, as would be the case if they were complementary antigens. Figure 12 provides the peptide sequences and their similarities to either INS or INSR. Clostridium similarities to the INS A chain were specifically chosen because the role of the A chain in the induction of T1DM is generally ignored in favor of the B chain.
(§3) Previous investigators have sequenced the T cell receptor (TCR) sequences that are expanded in T1DM patients with particular specificities for INS or INSR [61, 62]. […] TCR 1, 2, and 4 were from one patient; TCR 8, 9, and 10 were from a second patient; and TCR K2.4, K2.12, and K2.16 were from a third. Ultraviolet light spectrometry was used to determine whether each TCR sequence recognized the COX and Clostridia peptides used in the previous set of experiments (Figure 12). The results are shown in Table 1, Figure 13, and Appendix F.

[4] = target: Ins Rec 105–118; conditions: ultraviolet spectrometry; derived from previous study; read-out: Binding Constants, Ins Rec 105–118; cited from earlier work
Text: as §1, with “column: Ins Rec 105–118” for “column: INS”

[5] = target: Clost Pep #3; test: Ultraviolet spectrometry peptide binding; design: species or system Clostridium; conditions: estimated from inflection points of the curves, read-out: Binding Constants, Clost Pep #3
Text: as §2, §3

[6] = target: Clost Pep #2; test: Ultraviolet spectrometry peptide binding; design: species or system Clostridium; conditions: estimated from inflection points of the curves, read-out: Binding Constants, Clost Pep #2
Text: as §2, §3

INS, sequence (P01308 25-54): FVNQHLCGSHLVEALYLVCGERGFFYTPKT
INS, sequence (P01308 90-110): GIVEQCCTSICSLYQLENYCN

| Compound | Kd [1] | Kd [2] | Kd [3] | Kd [4] | Kd [5] | Kd [6] |
| --- | --- | --- | --- | --- | --- | --- |
| CC[C@H](C)[C@H](NC(=O)[C@@H](NC(=O)[C@H](C)NC(=O)[C@H](CC(C)C)NC(=O)[C@H](CO)NC(=O)[C@H](CO)NC(=O)[C@H](C)NC(=O)[C@@H](N)CS)C(C)C)C(=O)N[C@@H](CCCNC(=N)N)C(=O)N[C@H](C(=O)O)[C@@H](C)O (single isomer, unassigned) [TCR DIA 2, K2.16] | > 1000 µM | – | – | – | – | – |
| CASSIYLCSVEATRAD [TCR DIA 1] | 80 µM | 300 µM | 400 µM | 125 µM | 100 µM | 100 µM |
| CC(C)C[C@H](NC(=O)[C@H](C)NC(=O)[C@H](CO)NC(=O)[C@@H](N)CC(=O)O)C(=O)N[C@@H](Cc1ccc(O)cc1)C(=O)N[C@@H](CC(C)C)C(=O)N[C@@H](CS)C(=O)N[C@@H](C)C(=O)N[C@@H](CO)C(=O)N[C@@H](CO)C(=O)N[C@@H](CC(C)C)C(=O)NCC(=O)O (single isomer, unassigned) [TCR DIA 4,8,9] | > 1000 µM | – | – | – | – | – |
